Assay [1] has as its system sickle cell mice. The experiment in a line: TNFα-induced vaso-occlusive crisis in sickle cell mice, intravital microscopy of cremaster venules (prevention protocol). The class given is in vivo. From the text: FIG. 6 is a schematic of the protocol for inducing a vaso-occlusive crisis (VOC) in sickle cell-affected mice and recording blood flow.
(§1) An animal model of sickle cell disease exists in fully chimeric mice constructed by bone marrow transplantation and expressing >97% human globin containing the β^S mutation. A vaso-occlusive crisis is induced by stimulation with TNFα and is monitored by observing and recording blood flow by intravital microscopy of the venules in the cremaster muscle.
(§2) Each mouse is prepared by cannulating the right carotid artery and by undergoing a tracheotomy to facilitate ventilation under anesthesia. Twenty (20) minutes prior to stimulation with TNFα, the cremaster muscle is gently exteriorized and the venules are set on a microscope stage for observation and recording of blood flow. Just prior to administration of TNFα and again prior to the recording of the venules (90 min later), Compound # 2 is administered through the cannulated carotid artery and data is obtained by monitoring blood flow and recording time of death.

Assay [2] deals with sickle cell mice. Kind of assay: Delayed treatment of VOC in sickle cell mice (treatment protocol). It counts as in vivo. The following applies: control PBS. The procedure:
FIG. 9 is a schematic of a sickle cell mouse model for use with both prevention and treatment protocols. The black arrows underneath Comp. #2 are for the prevention protocol. The gray arrow underneath Comp. #2 is for the treatment protocol. Recording is started at the 90 minute mark for the prevention protocol. Recording is started at the 120 minute mark for the treatment protocol.
as §1, §2

Molecules are shown by their SMILES.

In the case of `CC1OC(OC2C(NC(=O)c3cc(O)nc(O)n3)CC(C(=O)NCCNC(=O)COCCOCC(=O)Nc3cccc(CNc4cc(S(=O)(=O)O)cc5cc(S(=O)(=O)O)cc(S(=O)(=O)O)c45)c3)CC2OC2OC(CO)C(O)C(O[C@@H](CC3CCCCC3)C(=O)O)C2OC(=O)c2ccccc2)C(O)C(O)C1O` (some centres unmarked) [Compound #2], in assay [1] (after stimulation with TNFα, compound given through cannulated carotid artery just prior to TNFα and again 90 min later, FIG. 7), the “blood flow in the sickle cell mouse” value is “restoring blood flow to a velocity observed in normal mice”. Further, in assay [1] (sickle cell mice, TNFα-induced vaso-occlusive crisis, FIG. 8), the “adhesion of sickle red blood cells (RBC) to leukocytes” value was “significant inhibition of adhesion”. Besides, the “adherent white blood cells (WBCs)” value in assay [2] (WBCs adherent to vascular endothelium, FIG. 11) is listed as “significant reduction in the number of WBCs adherent to the vascular endothelium”. Also, the blood flow rate entry in assay [2] (FIG. 10) is “normalizes the rate of blood flow”. For the same compound, the “interactions of sickle red blood cells (RBCS) with leukocytes” value in assay [2] (FIG. 12) is given as “dramatically reduces interactions of sickle RBCs with leukocytes”.
